# Measured values: US10792360B1, “Compositions and methods for treating inflammatory bowel disease using CCR9 inhibitor and anti-TNF-alpha blocking antibodies” (ChemoCentryx, Inc., priority 2019, dated 2020)
# Experiment: Compound 1 plasma concentration at trough (LC-MS) in piroxicam-accelerated MDR1a−/− colitis mice
# Type: in vivo, mouse
# Details: 90 mg/kg SC BID in 10% Cremophor-EL; trough blood after 3rd and 21st day of dosing; FIG. 1
# Description: Compound 1 was dosed at 90 mg/kg in 10% Cremophor-EL, SC, BID. Vehicle was 10% Cremophor-EL and was administered SC, BID. Anti-mouse TNFα clone XT3.11 (Rat IgG1), 300 μg/mouse, QD/QOD; Isotype-matched control Clone HRPN (Rat IgG1), 300 μg/mouse, QD/QOD.
# Blood was taken at trough from all Compound 1-dosed mice, and plasma analyzed by Liquid Chromatography-Mass Spectroscopy to determine Compound 1 concentration. Trough blood was taken after the 3rd day (left panel) and 21st day (right panel) of dosing (FIG. 1).
smiles,measurement,value
CC(C)(C)c1ccc(S(=O)(=O)Nc2ccc(Cl)cc2C(=O)c2cc[n+]([O-])cc2)cc1 [Compound 1],Compound 1 plasma concentration at trough,met or exceeded the minimal concentration established for 98% receptor coverage
